# Laboratory results published in paper PMC10812785, “Structures, Interactions and Activity of the N-Terminal Truncated Variants of Antimicrobial Peptide Thanatin” (Antibiotics, 2024).
# Like-named read-outs stand apart in the source and are kept apart here. Bridge positions count the residues as written; N and C are the ends. Ends that are not written are not given here.
# T1: LptAm, a monomeric functional (truncated) variant of LptA (E. coli, UniProt P0ADV1 28-159)
# T1 construct: LptA, periplasmic component of the LPS transport (Lpt) complex, E. coli, residues 28-159; no removal of the His tag is described; source: E. coli BL21, purified (Ni-NTA, size-exclusion chromatography)
# T1 sequence (looked up): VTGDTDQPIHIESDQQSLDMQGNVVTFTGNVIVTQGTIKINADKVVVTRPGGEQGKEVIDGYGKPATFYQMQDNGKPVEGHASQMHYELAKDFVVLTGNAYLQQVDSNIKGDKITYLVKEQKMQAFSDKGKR
# B1: PM15, 15-residue N-terminal truncated analog of thanatin (peptide)
# peptide: PIIYCNRRTGKCQRM
# notes: thanatin, Podisus maculiventris (spined soldier bug), the C-terminal 15 residues of the 21-residue peptide (P7-M21 of thanatin); also called 15-residue thanatin peptide; source: synthetic peptide, bought: GLBiochem (Shanghai, China)
# How the values were obtained:
# [1] = system: bacteria; conditions: cited from earlier work; for antibacterial activity, in words: N-terminal deletion fragment of thanatin
# Source text: Antimicrobial peptides (AMPs) are found in all life forms and constitute the first line of defense as a part of innate immunity in higher organisms, including humans. As a mode of action, a significant number of cationic AMPs disrupt membrane structures including the LPS–outer membrane of Gram-negative bacteria. Thanatin, a 21-residue antimicrobial peptide, was originally identified from the hemolymph of the spined soldier bug, or Podisus maculiventris. […] Further, to understand residue length-dependent antibacterial activity, here, we investigated a 15-residue N-terminal peptide fragment, or PM15 (PIIYCNRRTGKCQRM), of thanatin. We also examined two analog peptides, PM15Y and PM15A, to replace residue Pro. […] In this study, we have examined 15-residue thanatin-derived peptide, or PM15, and two analogs, PM15Y and PM15A. PM15 and analog peptides are able to exert antibacterial activity against Gram-negative and Gram ...
# [2] = system: LPS-outer membrane; LptA and LptD; conditions: cited from earlier work
# Source text: (§1) Antimicrobial peptides (AMPs) are found in all life forms and constitute the first line of defense as a part of innate immunity in higher organisms, including humans. As a mode of action, a significant number of cationic AMPs disrupt membrane structures including the LPS–outer membrane of Gram-negative bacteria. Thanatin, a 21-residue antimicrobial peptide, was originally identified from the hemolymph of the spined soldier bug, or Podisus maculiventris. Recent studies have discovered and characterized thanatin orthologous AMPs from other speci ...
# [3] = system: bacterial load from model animals; conditions: ref [29],[30],[31]; cited from earlier work
# Source text: as §1
# [4] = system: Acenobacter baumannii ATCC BAA-1798; assay type: cell-based, A. baumannii
# Source text: (§2) Chemically synthesized PM15, PM15Y and PM15A peptides were obtained from GLBiochem^TM (Shanghai, China). Molecular weight of the peptides was confirmed by mass spectrometry. Bacterial strains were obtained from the American Type Culture Collection (ATCC, Manassas, VA, USA). Mueller–Hinton (MH) broth was purchased from Sigma-Aldrich^TM (Saint Louis, MO, USA) and Millipore-Sigma^TM (Saint Louis, MO, USA). 1-N-phenylnaphthylamine (NPN) and LPS (E. coli O111:B4) were purchased from Sigma Aldrich^TM.
# Bacterial growth inhibition of PM15, PM15A and PM15Y peptides was estimated against a panel of bacterial strains, namely, E. coli ATCC25922, S. enterica ATCC 14028, K. pneumoniae ATCC 13883, A. baumannii ATCC BAA-1798, S. pyogenes ATCC 19615 and E. faecalis ATCC 29212, by using the broth dilution assay determining minimum inhibitory concentration (MIC). Typically, overnight bacterial cultures were grown to mid-log phase at 37 °C and then diluted in Mueller–Hinton (MH) broth to OD600 ~ 0.002. […] Bacterial inhibition was determined by absorbance of 96-well plates at OD600 nm by using a Cytation spectrophotometer (Agilent, Santa Clara, CA, USA). The minimum peptide concentration showing complete inhibition of bacterial growth was determined as the MIC value.
# [5] = ITC of peptide/LPS binding; set-up: species or system E. coli; conditions: 10 mM sodium phosphate, pH 7.0, 37 °C
# Source text: as §2
# (§3) ITC experiments were conducted by using a MicroCal ITC 200 calorimeter. Samples, LPS and peptides, were prepared in 10 mM sodium phosphate buffer, pH 7.0. LPS (50 µM) was placed in the sample cell, while the syringe contained 1 mM of peptide. In an individual experiment, 2.0 μL of peptide was titrated, with a total of 20 titrations, into the sample cell containing LPS at 37 °C with stirring speed adjusted to 750 rpm. For ITCs of peptides/LptAm, samples were prepared in 50 mM sodium phosphate buffer, 150 mM NaCl, pH 7.0. 25 μM of LptAm was loaded into the sample cell, whereas 250 μM of PM15 and PM15Y was placed in the syringe. ITC titrations were performed with 20 injections of 2 µL of peptide into sample cells at 25 °C with a stirring speed of 750 rpm. ITC data were analyzed by using a single site binding model in MicroCal Origin 5.0 software to obtain the association constant (Ka) and enthalpy change (ΔH). Other binding parameters, namely, dissociation constant (Kd), Gibbs free energy (ΔG) and entropy change (TΔS), were determined indirectly from thermodynamics equations.
# [6] = target: T2, LptAm protein of E. coli (Escherichia coli, UniProt P0ADV1); assay: ITC of peptide/LptAm binding; conditions: 50 mM sodium phosphate, 150 mM NaCl, pH 7.0, 25 °C
# T2 construct: Expression and purification of LptAm protein (residues 28–159), with a six His-tag (SGRVEHHHHHH) at the C-terminus; made in house; host or cells: E. coli BL21
# Description: as §3
# Expression and purification of LptAm protein (residues 28–159), with a six His-tag (SGRVEHHHHHH) at the C-terminus, was carried out by using a previously established method. Briefly, plasmid DNA coding for LptAm gene was transformed into E. coli BL21 competent cells in LB agar plates containing 100 µg/mL of ampicillin. Protein production from expressing E. coli was induced by 1 mM isopropyl β-d-1-thiogalactopyranoside (IPTG) at an OD600 value of 0.6–0.8 at 18 °C for 18 h. The bacteria cells were centrifuged at 6000 rpm, 4 °C for 15 min and resuspended in a lysis buffer (100 mM HEPES, 500 mM NaCl, 10 mM imidazole, pH 8). Bacterial cells were lysed by sonication on ice at 25 Amp for 1 h, the lysate was centrifuged at 18,000 rpm, 4 °C for 30 min to remove cellular debris. The cell supernatant was applied through Ni-NTA (Qiagen, Germantown, TN, USA) beads thrice before washing it with increasing concentrations of imidazole. […]
# [7] = system: E. coli cells; assay: Zeta potential of E. coli cells (surface charge neutralization); assay type: cell-based; conditions: 10 mM sodium phosphate buffer, pH 7; peptide 2-32 μM; three replicates of 100 runs; Figure 1A
# Description: All zeta potential measurements were performed on a Zeta Sizer Nano ZS (Malvern Instruments, Worcestershire, UK) equipped with a 633 nm He laser using zeta cells with gold electrodes. Typically, E. coli cells at a mid-log culture in LB media were harvested by centrifugation at 5000 rpm for 10 min and resuspended in 10 mM sodium phosphate buffer, pH 7. Zeta potential value of the bacterial cell suspension was determined for the free cells and with subsequent additions of peptide (2 μM to 32 μM). For each concentration, 100 runs were carried out and three replicates were executed.
# [8] = target: T1, LptAm, a monomeric functional …; assay: ITC; 250 uM peptide in the syringe titrated into 25 uM LptAm in the cell; 50 mM sodium phosphate, 150 mM NaCl, pH 7.0, 25 °C; single site binding model; apparent Kd; conditions: both partners purified
# [9] = 1 mM peptide into 50 μM E. coli LPS (O111:B4), single site binding model
# [10] = LPS, determined indirectly from thermodynamics equations
molecule,measurement,setting,value
"IIYCNRRTGKCQRM [14-residue (IIYCNRRTGKCQRM) fragment, 14-residue (…) fragment of thanatin]","antibacterial activity, in words","[1]; ref [23],[36]",largely inactive
same,"antibacterial activity, in words","[1]; ref [23],[36], listed as 14-residue thanatin",inactive peptide
"thanatin: 21-residue antimicrobial peptide from the hemolymph of the spined soldier bug, Podisus maculiventris","killing of Gram-negative bacteria, in words","[1]; Enterobacteriaceae, including drug-resistant strains, ref [26],[28],[30],[31]",extremely potent in selectively killing Gram-negative bacteria
same,"antimicrobial activity, in words","[1]; Gram-negative and Gram-positive bacteria and several strains of fungi, ref [23],[26],[27],[28],[29],[30]",broad spectrum of antimicrobial activity
same,"inhibition of outer-membrane biogenesis, in words","[2]; LptA and LptD, LPS transport, ref [33],[34],[35]",inhibits outer-membrane biogenesis by disrupting protein complexes (LptA and LptD)
same,"interaction with LPS-outer membrane, in words","[2]; ref [27],[28],[32]","interacted with the LPS–outer membrane, facilitating the permeabilizing of the OM barrier"
same,"clearing bacterial load, in words",[3],promising activity profile
"VPIIYCNRRTGKCQRM [16-residue fragment, 16-residue fragment (…) of thanatin]","antibacterial activity, in words","[1]; ref [23],[26],[31],[36]",potent antibacterial activity
same,"antibacterial activity, in words","[1]; ref [23],[31],[36]",demonstrated antibacterial activity
CC[C@H](C)[C@H](NC(=O)[C@@H]1CCCN1)C(=O)N[C@H](C(=O)N[C@@H](Cc1ccc(O)cc1)C(=O)N[C@H]1CSSC[C@@H](C(=O)N[C@@H](CCC(N)=O)C(=O)N[C@@H](CCCNC(=N)N)C(=O)N[C@@H](CCSC)C(=O)O)NC(=O)[C@H](CCCCN)NC(=O)CNC(=O)[C@H]([C@@H](C)O)NC(=O)[C@H](CCCNC(=N)N)NC(=O)[C@H](CCCNC(=N)N)NC(=O)[C@H](CC(N)=O)NC1=O)[C@@H](C)CC [PM15],MIC,[4],>16 (>16) µM
same,Kd,[5]; [9],570 nM
same,ΔH,[5]; [9],-7.33 kcal/mol
same,TΔS,[5]; [10],1.54 kcal/mol
same,ΔG,[5]; [10],-8.87 kcal/mol
same,ΔH,"[6]; 250 μM peptide into 25 μM LptAm, single site binding model",-2.93 kcal/mol
same,"LptAm binding, in words",[6],bind to LptAm with high affinity
same,TΔS,"[6]; LptAm, determined indirectly from thermodynamics equations",6.23 kcal/mol
same,"change in zeta potential of E. coli cells, in words",[7],increase in zeta potential in a dose-dependent manner
"YIIYCNRRTGKCQRM (disulfide 5-12) [PM15Y, P1 to Y substituted variant of PM15]",dH,[8],-11.8 kcal/mol
B1,Kd,[8],600 nM
same,dH,[8],-2.93 kcal/mol
